Test results reported in patent publication US20140113342A1, “Production of 1,2-Propanediol in Cyanobacteria” (Algenol Biofuels Inc., priority 2012, published 2014).

Legend:
[1] = test system: Synechocystis sp. PCC 6803; test: Tolerance testing to 1,2-propanediol added to culture medium; type: cell-based; details: one week
Description: (§1) The tolerance of cyanobacterial strains PCC 6803 and PCC 7002 to the presence of accumulated 1,2-propanediol in the culture medium was examined by adding a one time bolus of varying amounts of 1,2-propanediol (1%, 2%, 3% and 5%) to exponential phase cultures and comparing the growth of these cultures to a wild type culture with no addition. Growth was monitored by optical density (OD750) for one week. […] PCC 7002.

[2] = test system: Synechococcus sp. PCC 7002; test: as above; type: cell-based; details: one week
Description: as §1

[3] = 1%, 2%, 3% and 5% 1,2-propanediol
[4] = up to 3% 1,2-propanediol, one time bolus to exponential phase culture

CC(O)CO (centres unmarked) [1,2-propanediol]
lethal effect (complete bleaching) [1, 3]: No lethal effect | growth of cultures (OD750) compared to wild type culture with no addition ([1]; 5% 1,2-propanediol, one time bolus): less growth, discoloration and clumping | growth of cultures (OD750) compared to wild type culture with no addition [1, 4]: no difference in the growth | lethal effect (complete bleaching) [2, 3]: No lethal effect | growth of cultures (OD750) compared to wild type culture with no addition [2, 4]: no difference in the growth
